Test: Human HepG2 cell viability assay in 384 well format
Format: toxicity, cell-based
Set-up: dose 125 nL, time 70.5 hour; cytotoxicity at 70.5 h: concentration not given beside the values
Conditions: HepG2 cells, read-out: Inhibition

With `CC(C)Oc1cccc2c1c(NC(=O)CN(C)C)nn2CC(F)(F)F` the cytotoxicity at 70.5 h was -8.54%.

`Cc1nc(CN(C)C(=O)NC(C)c2ccc3c(c2)OCCO3)cs1` (configuration not stated) gave a cytotoxicity at 70.5 h of 36.4%.

`CCn1cc(CN2CCCN(C(=O)C3=NN(C)C(=O)CC3)CC2)cn1` showed a cytotoxicity at 70.5 h of 17.3%.

Molecule `COCCn1cnc2ccc(NC(=O)C3CC3)cc2c1=O` has a cytotoxicity at 70.5 h of -8.53%.

With `CC(=O)Nc1ncc(S(=O)(=O)Nc2ccc(F)cc2)s1` the cytotoxicity at 70.5 h was 30.4%.

Work on `CC(C)(C)c1nnc2n1C(C(=O)N1CCN(c3ncccn3)CC1)CC2` (configuration not stated) yielded a cytotoxicity at 70.5 h of -11.2%.

`CCc1nc(C(=O)N2CCN(CC)CC2)nn1-c1ccccc1Cl` showed a cytotoxicity at 70.5 h of 11.3%.

In the case of `CCc1nc(C2CCCN2CCS(=O)(=O)c2ccccc2)no1` (configuration not stated), the cytotoxicity at 70.5 h is reported as -1.81%.

Molecule `CC(C)Sc1nnnn1C1CCCC1` has a cytotoxicity at 70.5 h of -9.93%.

Work on `Cc1cc(O)cc2c(=O)oc(CC(C)O)cc12` (configuration not stated) yielded a cytotoxicity at 70.5 h of -6.88%.

In the case of `CS(=O)(=O)Cc1nc(CNc2c(F)cc(F)cc2F)cs1`, the cytotoxicity at 70.5 h is reported as -2.82%.

`Cc1nc(O)cc(C2CCCN(Cc3c(Cl)cncc3Cl)C2)n1` (configuration not stated) gave a cytotoxicity at 70.5 h of -8.65%.

Molecule `CC(=O)N1CC(C)CN(C(=O)c2cccnc2C)c2ccccc21` (configuration not stated) has a cytotoxicity at 70.5 h of -7.8%.

`Cc1ccc(C(=O)NS(=O)(=O)Cc2ccccc2)cc1S(C)(=O)=O` showed a cytotoxicity at 70.5 h of -2.97%.

For `O=C(NCC1COCc2c(-c3cccnc3)nnn2C1)c1cccs1` (configuration not stated), the cytotoxicity at 70.5 h was -15.7%.

Work on `Cn1nccc1-c1cccc(CC2CCN(S(C)(=O)=O)C2)n1` (configuration not stated) yielded a cytotoxicity at 70.5 h of -4.28%.

Molecule `O=C(c1c[nH]cn1)N1CCOCC2(C1)CN(c1ccccc1)C(=O)CO2` (configuration not stated) has a cytotoxicity at 70.5 h of -13.7%.

In the case of `CCc1ncncc1C(=O)NC1CCc2nc(C)cn2C1` (configuration not stated), the cytotoxicity at 70.5 h is reported as -1.22%.

For `Cc1cccc(C2CCCCCN2Cc2cn(C)nc2C)c1` (configuration not stated), the cytotoxicity at 70.5 h was -9.15%.

Work on `O=C1O[C@@H]2CN(S(=O)(=O)N3CCCC3)C[C@@H]2N1CCc1cccc(Cl)c1` yielded a cytotoxicity at 70.5 h of 0.28%.

`O=C(NC1CC1)c1cc(C2CCCN(Cc3ccccn3)C2)no1` (configuration not stated) showed a cytotoxicity at 70.5 h of -13.3%.

For `O=C([C@H]1C[C@H]2OCC[C@H]2N(Cc2ccccc2F)C1)N1CCCCO1`, the cytotoxicity at 70.5 h was -7.79%.

With `O=c1c2cc3c(cc2nnn1Cc1ccccc1)OCCO3` the cytotoxicity at 70.5 h was -2.96%.

With `Cc1nc2ncnn2c(C)c1CCC(=O)Nc1cccn(C)c1=O` the cytotoxicity at 70.5 h was -15.3%.

For `O=C(Cc1n[nH]c2ccccc12)N1CCCC1Cn1cccn1` (configuration not stated), the cytotoxicity at 70.5 h was 0.964%.

`CN1CCCN(CCCNC2CCc3cc4c(cc32)OCCO4)CC1` (configuration not stated) gave a cytotoxicity at 70.5 h of 8.36%.

`Cn1cc(C(=O)N2CC[C@@]3(O)CCN(C(=O)C4CCC4)C[C@H]3C2)cn1` showed a cytotoxicity at 70.5 h of 3.54%.

In the case of `COc1ccc(C(CO)NC(=O)Nc2cccc(C(C)=O)c2)cc1` (configuration not stated), the cytotoxicity at 70.5 h is reported as -6.17%.

For `Cc1nc(C(=O)N2CCCC(c3ccc4sc(N)nc4n3)C2)co1` (configuration not stated), the cytotoxicity at 70.5 h was -7.73%.

With `CN(C)C(=O)c1cc2c(s1)CCN(C(=O)CCCN1CCCCC1)C2` the cytotoxicity at 70.5 h was -6.61%.

Molecule `COC1CCN(C(=O)c2ccccc2NCc2cccnc2)CC1` has a cytotoxicity at 70.5 h of -2.63%.

Work on `Cc1ccc(C(=O)N2CC[C@@]3(C[C@@H](NS(C)(=O)=O)CCO3)C2)s1` yielded a cytotoxicity at 70.5 h of 4.89%.

In the case of `CCCc1n[nH]c(C2CN(CCCOc3ccccc3)CCO2)n1` (configuration not stated), the cytotoxicity at 70.5 h is reported as -6.69%.

Molecule `Cc1ncc(CN2CCOC(CN(C)c3cccnn3)C2)s1` (configuration not stated) has a cytotoxicity at 70.5 h of -9.59%.

With `CN(Cc1nncn1-c1cccc(C(F)(F)F)c1)S(C)(=O)=O` the cytotoxicity at 70.5 h was 7.25%.

Work on `CCCc1n[nH]c(C2CN(C(=O)c3cc(C4CC4)on3)CCO2)n1` (configuration not stated) yielded a cytotoxicity at 70.5 h of -10.9%.

`CCN1CCN(c2ncc(-c3cc(C)no3)c(-c3ccco3)n2)CC1` showed a cytotoxicity at 70.5 h of -3.95%.

In the case of `CC(=O)NCC(=O)N1CCC2(CC1)NC(=O)CC2c1cccnc1` (configuration not stated), the cytotoxicity at 70.5 h is reported as -1.28%.

Molecule `Cc1cc(C(=O)N2CCCC2)ccc1NS(C)(=O)=O` has a cytotoxicity at 70.5 h of -7.84%.

For `Cc1cc(C)c(CNC(=O)CC2CCCO2)c(=O)[nH]1` (configuration not stated), the cytotoxicity at 70.5 h was -3.05%.

`Cc1cccn2cc(CNCc3cccc4c3OCCCO4)nc12` showed a cytotoxicity at 70.5 h of 8.14%.

With `Clc1ccc(CN2CCc3c(ncn3C3CC3)C2)c2ncccc12` the cytotoxicity at 70.5 h was -2.64%.

In the case of `CN1C(=O)CC(c2cnn(C)c2)C12CCN(CC1CCOCC1)CC2` (configuration not stated), the cytotoxicity at 70.5 h is reported as -9.88%.

With `Cc1nc(C)n(CC2CCCN2c2ncnc3sccc23)n1` (configuration not stated) the cytotoxicity at 70.5 h was -7.8%.

Molecule `CNC(=O)[C@@]12CCCN(c3ncccn3)[C@@H]1CN(c1ncc(F)cn1)C2` has a cytotoxicity at 70.5 h of -0.144%.

With `Cc1c(Cl)c(C(F)(F)F)nn1C(C)C(=O)NC1CCN(C)CC1` (configuration not stated) the cytotoxicity at 70.5 h was 7.5%.

Work on `Cc1cccnc1NC(=O)c1ccc(F)c(S(=O)(=O)NC2CC2)c1` yielded a cytotoxicity at 70.5 h of -2.44%.

With `O=C(O)[C@@]12CN(c3cnccn3)C[C@@H]1CN(C1CCOCC1)C2` the cytotoxicity at 70.5 h was -4.6%.

Work on `COc1cc(C(C)NCc2scnc2C)ccc1SC(F)F` (configuration not stated) yielded a cytotoxicity at 70.5 h of -9.67%.

Molecule `O=C(CC1CC2(CCN(CC3CC3)CC2)Oc2ccccc21)NC1CC1` (configuration not stated) has a cytotoxicity at 70.5 h of -5.53%.

With `O=C(NCCN1CCOCC1)c1cnc(Cc2ccc(F)cc2)s1` the cytotoxicity at 70.5 h was -8.24%.

In the case of `CC(C)c1ccc(OCCC(=O)NCCC(=O)N(C)C)cc1`, the cytotoxicity at 70.5 h is reported as -8.34%.

With `Fc1ccc(CN2CCn3cc(Cn4cccn4)nc3C2)cc1` the cytotoxicity at 70.5 h was -20.8%.

In the case of `O=C(C1CCC1)N1CCC(=O)N(C2CC2)Cc2cc(F)ccc21`, the cytotoxicity at 70.5 h is reported as 1.48%.

In the case of `CCN1CC2(CC1=O)CN(Cc1cnn(C)c1)CCN(C(=O)N(C)C)C2` (configuration not stated), the cytotoxicity at 70.5 h is reported as 9.62%.

For `CCc1cc(N2CC(N3CCCCC3C)C2)n2nccc2n1` (configuration not stated), the cytotoxicity at 70.5 h was 6.74%.

In the case of `O=C(CCc1nccs1)N1CCN(c2cccnn2)CC1`, the cytotoxicity at 70.5 h is reported as -3.92%.
